Laboratory results reported in US20120245137A1 (Zalicus Pharmaceuticals Ltd., priority 2009, published 2012).

Columns and labels:
Assay type in all cases: cell-based
[1] = biological target: human α1H T-type channels (Homo sapiens, UniProt O95180); assay: T-type calcium channel block, whole cell patch clamp, α1H; details: HEK cells stably expressing human α1H; mainly non-inactivated protocol; values above 10,000 nM represented as 10000
Outline: (§1)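 Blockade of T-type current was measured in human α1G- or α1H-expressing HEK 293 cells using whole-cell recording with ~5 MΩ pipettes. Test compounds, dissolved in external solution containing 0.1-0.01% DMSO, were applied close to the cell, and block was examined under both non-inactivating and inactivating voltage protocols.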

[2] = biological target: N-type calcium channel subunits (α1B, α2δ, and β3a) (Homo sapiens, UniProt Q00975); assay: Block of Cav2.2 channel, whole cell voltage clamp, manual and PatchXpress; details: Table 5; table follows Assay Example 3 (whole cell voltage clamp / PatchXpress); assay not given
Outline: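 Percent block taken as current amplitude ratio with versus without compound, applied in rising doses; IC50 fitted where one cell received multiple doses. Protocol: 50 ms pulses to +20 mV at 0.067 Hz from […] or −90 mV holding; P/n leak subtraction, no junction-potential correction; manual and PatchXpress recordings.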

[3] = biological target: human α1G T-type channels (Homo sapiens, UniProt O43497); assay: T-type calcium channel block, whole cell patch clamp, α1G; details: HEK cells stably expressing human α1G; mainly non-inactivated protocol; values above 10,000 nM represented as 10000
Outline: as §1

human α1G T-type channels, sequence (O43497 whole entry): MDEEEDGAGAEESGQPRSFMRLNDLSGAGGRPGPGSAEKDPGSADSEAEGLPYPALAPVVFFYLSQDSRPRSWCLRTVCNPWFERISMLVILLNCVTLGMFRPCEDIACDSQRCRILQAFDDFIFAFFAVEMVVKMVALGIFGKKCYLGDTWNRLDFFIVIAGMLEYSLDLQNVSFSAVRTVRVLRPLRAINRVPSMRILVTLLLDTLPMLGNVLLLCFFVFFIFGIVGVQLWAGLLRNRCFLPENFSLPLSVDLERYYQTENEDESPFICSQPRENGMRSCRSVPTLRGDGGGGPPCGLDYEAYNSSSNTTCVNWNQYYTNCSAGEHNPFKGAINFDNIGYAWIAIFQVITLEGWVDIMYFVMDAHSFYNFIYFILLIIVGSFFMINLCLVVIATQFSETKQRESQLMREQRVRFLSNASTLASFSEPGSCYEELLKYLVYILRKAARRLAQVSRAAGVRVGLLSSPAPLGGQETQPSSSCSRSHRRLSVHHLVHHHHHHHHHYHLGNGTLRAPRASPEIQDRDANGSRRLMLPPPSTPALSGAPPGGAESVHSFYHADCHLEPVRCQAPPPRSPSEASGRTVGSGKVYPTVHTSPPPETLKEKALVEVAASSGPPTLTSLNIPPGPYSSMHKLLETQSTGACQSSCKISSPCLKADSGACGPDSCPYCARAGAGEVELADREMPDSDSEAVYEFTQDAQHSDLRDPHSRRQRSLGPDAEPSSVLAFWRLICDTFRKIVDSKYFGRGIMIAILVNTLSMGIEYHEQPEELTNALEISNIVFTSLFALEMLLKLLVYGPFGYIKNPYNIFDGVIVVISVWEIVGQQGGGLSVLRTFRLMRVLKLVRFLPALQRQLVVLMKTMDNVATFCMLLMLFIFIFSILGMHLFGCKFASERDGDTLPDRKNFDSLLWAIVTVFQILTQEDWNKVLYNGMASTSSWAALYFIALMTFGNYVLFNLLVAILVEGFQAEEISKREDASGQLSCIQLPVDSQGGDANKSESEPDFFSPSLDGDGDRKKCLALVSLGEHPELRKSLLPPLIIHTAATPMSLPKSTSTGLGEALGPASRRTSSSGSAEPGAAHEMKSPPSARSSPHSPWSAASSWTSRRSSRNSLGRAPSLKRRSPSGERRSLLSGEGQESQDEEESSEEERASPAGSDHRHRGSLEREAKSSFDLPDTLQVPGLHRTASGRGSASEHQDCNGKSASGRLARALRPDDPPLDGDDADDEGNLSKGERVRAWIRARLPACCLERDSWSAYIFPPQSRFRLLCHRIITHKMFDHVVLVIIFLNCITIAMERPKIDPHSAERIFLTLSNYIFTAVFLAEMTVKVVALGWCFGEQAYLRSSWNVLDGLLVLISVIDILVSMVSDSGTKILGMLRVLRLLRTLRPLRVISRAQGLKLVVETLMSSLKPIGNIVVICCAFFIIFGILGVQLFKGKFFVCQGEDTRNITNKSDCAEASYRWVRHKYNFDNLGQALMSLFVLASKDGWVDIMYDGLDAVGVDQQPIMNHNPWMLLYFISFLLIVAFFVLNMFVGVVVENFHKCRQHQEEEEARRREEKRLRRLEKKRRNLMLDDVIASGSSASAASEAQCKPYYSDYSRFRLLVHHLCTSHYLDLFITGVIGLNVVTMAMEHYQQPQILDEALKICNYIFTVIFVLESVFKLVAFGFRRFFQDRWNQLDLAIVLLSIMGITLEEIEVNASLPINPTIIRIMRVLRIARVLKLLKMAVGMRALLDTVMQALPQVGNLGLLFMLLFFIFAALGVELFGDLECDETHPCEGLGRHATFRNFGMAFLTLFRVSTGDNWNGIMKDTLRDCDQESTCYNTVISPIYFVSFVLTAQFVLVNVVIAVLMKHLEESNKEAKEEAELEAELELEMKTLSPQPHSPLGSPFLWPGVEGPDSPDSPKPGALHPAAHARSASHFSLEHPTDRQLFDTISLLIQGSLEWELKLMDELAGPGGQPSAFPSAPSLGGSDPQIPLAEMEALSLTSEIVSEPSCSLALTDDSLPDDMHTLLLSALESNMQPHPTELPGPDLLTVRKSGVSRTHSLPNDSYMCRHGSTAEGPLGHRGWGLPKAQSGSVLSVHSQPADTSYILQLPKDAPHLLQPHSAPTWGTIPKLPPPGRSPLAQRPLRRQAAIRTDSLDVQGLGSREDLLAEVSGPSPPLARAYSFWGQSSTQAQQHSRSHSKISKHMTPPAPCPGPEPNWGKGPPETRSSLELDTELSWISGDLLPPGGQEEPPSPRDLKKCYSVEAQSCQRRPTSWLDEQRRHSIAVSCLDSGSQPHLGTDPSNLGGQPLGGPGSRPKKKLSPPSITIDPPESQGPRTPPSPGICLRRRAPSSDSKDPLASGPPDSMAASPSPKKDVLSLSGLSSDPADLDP
human α1H T-type channels, sequence (O95180 whole entry): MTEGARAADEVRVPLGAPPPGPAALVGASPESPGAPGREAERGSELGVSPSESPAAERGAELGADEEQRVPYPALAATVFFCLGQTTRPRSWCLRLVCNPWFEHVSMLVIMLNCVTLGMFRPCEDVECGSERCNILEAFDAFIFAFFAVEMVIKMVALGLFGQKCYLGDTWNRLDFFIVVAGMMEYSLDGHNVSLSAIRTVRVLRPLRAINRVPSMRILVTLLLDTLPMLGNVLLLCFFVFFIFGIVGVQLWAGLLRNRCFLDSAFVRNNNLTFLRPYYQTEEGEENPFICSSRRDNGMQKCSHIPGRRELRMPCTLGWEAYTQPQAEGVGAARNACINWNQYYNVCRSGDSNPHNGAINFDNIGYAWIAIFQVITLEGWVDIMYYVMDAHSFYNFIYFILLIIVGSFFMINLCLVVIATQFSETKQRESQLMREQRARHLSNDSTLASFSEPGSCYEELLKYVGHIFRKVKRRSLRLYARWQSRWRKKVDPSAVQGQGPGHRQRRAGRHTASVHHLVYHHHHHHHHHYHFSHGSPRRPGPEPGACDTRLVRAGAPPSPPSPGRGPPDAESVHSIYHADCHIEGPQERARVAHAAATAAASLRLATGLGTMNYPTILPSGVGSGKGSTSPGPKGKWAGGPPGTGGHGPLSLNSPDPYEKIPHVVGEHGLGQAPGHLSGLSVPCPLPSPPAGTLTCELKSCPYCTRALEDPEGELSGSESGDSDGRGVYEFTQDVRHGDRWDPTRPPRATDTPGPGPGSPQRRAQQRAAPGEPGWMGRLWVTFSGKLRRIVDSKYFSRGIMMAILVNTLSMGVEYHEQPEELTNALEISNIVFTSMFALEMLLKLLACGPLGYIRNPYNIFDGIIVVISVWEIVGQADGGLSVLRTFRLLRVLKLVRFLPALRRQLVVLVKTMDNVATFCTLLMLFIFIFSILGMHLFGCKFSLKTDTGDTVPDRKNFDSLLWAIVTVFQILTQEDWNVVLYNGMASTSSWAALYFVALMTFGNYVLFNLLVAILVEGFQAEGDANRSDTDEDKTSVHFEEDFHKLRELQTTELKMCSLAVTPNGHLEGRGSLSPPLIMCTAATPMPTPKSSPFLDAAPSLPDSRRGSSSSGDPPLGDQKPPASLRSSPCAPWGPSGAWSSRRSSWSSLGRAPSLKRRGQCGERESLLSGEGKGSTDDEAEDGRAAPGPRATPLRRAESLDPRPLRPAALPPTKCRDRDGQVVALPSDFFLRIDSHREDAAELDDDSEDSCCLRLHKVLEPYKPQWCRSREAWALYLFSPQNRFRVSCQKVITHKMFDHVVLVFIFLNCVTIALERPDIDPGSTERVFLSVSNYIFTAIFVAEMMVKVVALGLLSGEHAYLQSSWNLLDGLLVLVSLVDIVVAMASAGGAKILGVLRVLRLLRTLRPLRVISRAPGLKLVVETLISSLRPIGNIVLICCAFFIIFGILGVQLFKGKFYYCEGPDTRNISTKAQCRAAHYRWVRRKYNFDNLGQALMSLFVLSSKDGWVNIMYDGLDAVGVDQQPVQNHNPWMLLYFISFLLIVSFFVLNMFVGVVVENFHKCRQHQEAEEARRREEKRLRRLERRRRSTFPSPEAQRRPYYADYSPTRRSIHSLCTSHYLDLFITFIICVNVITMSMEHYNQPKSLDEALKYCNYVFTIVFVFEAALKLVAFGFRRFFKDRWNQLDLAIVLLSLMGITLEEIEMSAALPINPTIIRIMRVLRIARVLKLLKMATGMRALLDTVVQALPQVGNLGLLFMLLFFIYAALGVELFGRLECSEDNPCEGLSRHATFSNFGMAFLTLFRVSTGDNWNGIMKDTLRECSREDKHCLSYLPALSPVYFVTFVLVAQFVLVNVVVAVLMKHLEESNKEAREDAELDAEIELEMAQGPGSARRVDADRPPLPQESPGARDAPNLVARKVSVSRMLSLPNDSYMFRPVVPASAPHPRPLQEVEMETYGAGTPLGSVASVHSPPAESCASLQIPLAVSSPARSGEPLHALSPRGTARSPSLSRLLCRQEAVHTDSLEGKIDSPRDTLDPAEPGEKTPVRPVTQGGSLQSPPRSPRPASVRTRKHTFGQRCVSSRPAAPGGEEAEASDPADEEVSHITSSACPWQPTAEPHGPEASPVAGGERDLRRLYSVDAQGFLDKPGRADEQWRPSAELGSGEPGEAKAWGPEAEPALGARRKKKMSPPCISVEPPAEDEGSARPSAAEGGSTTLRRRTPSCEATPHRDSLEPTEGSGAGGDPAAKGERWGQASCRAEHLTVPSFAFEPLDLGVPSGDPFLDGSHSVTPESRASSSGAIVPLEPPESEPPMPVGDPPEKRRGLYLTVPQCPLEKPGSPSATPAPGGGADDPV

Row | SMILES | IC50 [1] | IC50 [2] | IC50 [3]
1 | COc1cc(F)cc(C(=O)N[C@H]2CC[C@@H](CS(=O)(=O)c3cccc(C(F)(F)F)c3)CC2)c1 [Compound 136, 3-fluoro-5-methoxy-N-((1S,4S)-4-((3-(trifluoromethyl)phenylsulfonyl)methyl)cyclohexyl)benzamide] | 0.55 µM | 440 nM | 0.54 µM
2 | O=C(N[C@H]1CC[C@@H](CS(=O)(=O)c2cccc(C(F)(F)F)c2)CC1)c1ccc(Cl)c(OC(F)(F)F)c1 [Compound 139, 4-chloro-3-(trifluoromethoxy)-N-((1S,4S)-4-((3-(trifluoromethyl)phenylsulfonyl)methyl)cyclohexyl)benzamide] | 1.02 µM | 390 nM | 1.88 µM
3 | O=C(N[C@H]1CC[C@@H](CS(=O)(=O)c2cccc(C(F)(F)F)c2)CC1)c1ccc(Cl)c(F)c1 [Compound 141, 4-chloro-3-fluoro-N-((1S,4S)-4-((3-(trifluoromethyl)phenylsulfonyl)methyl)cyclohexyl)benzamide] | 3.61 µM | 600 nM | 4.25 µM
4 | O=C(N[C@H]1CC[C@@H](CS(=O)(=O)c2cccc(C(F)(F)F)c2)CC1)c1ccc(F)c(Cl)c1 [Compound 142, 3-chloro-4-fluoro-N-((1S,4S)-4-((3-(trifluoromethyl)phenylsulfonyl)methyl)cyclohexyl)benzamide] | 5.88 µM | 380 nM | 8.23 µM
5 | O=C(N[C@H]1CC[C@@H](CS(=O)(=O)c2cccc(C(F)(F)F)c2)CC1)c1ccc(C(F)(F)F)cn1 [Compound 143, 5-(trifluoromethyl)-N-((1S,4S)-4-((3-(trifluoromethyl)phenylsulfonyl)methyl)cyclohexyl)picolinamide] | 6.75 µM | 950 nM | > 10 µM
6 | CN(C(=O)CN[C@H]1CC[C@@H](CS(=O)(=O)c2cccc(C(F)(F)F)c2)CC1)C(C)(C)C [Compound 145, N-tert-butyl-N-methyl-2-((1S,4S)-4-((3-(trifluoromethyl)phenylsulfonyl)methyl)cyclohexylamino)acetamide] | 1.34 µM | 1190 nM | 5.83 µM
7 | COc1cc(C(=O)NCC2(C)CCC(F)(S(=O)(=O)c3cccc(C(F)(F)F)c3)CC2)cc(Cl)n1 (stereo not drawn) [Compound 158, 2-chloro-N-((4-fluoro-1-methyl-4-(3-(trifluoromethyl)phenylsulfonyl)cyclohexyl)methyl)-6-methoxyisonicotinamide] | 7.2 µM | 480 nM | > 10 µM
8 | CC1(CNCC(=O)NC(C)(C)C)CCC(F)(S(=O)(=O)c2cccc(C(F)(F)F)c2)CC1 (stereo not drawn) [Compound 159, N-tert-butyl-2-((4-fluoro-1-methyl-4-(3-(trifluoromethyl)phenylsulfonyl)cyclohexyl)methylamino)acetamide] | > 10 µM | 460 nM | > 10 µM
9 | O=C(CNC1CCCCC1)N[C@H]1CC[C@H](CS(=O)(=O)c2cccc(C(F)(F)F)c2)CC1 [Compound 162, 2-(cyclohexylamino)-N-((1R,4R)-4-((3-(trifluoromethyl)phenylsulfonyl)methyl)cyclohexyl)acetamide] | > 10 µM | 540 nM | > 10 µM
10 | O=C(CNC1CCC(F)(F)CC1)N[C@H]1CC[C@H](CS(=O)(=O)c2cccc(C(F)(F)F)c2)CC1 [Compound 165, 2-(4,4-difluorocyclohexylamino)-N-((1R,4R)-4-((3-(trifluoromethyl)phenylsulfonyl)methyl)cyclohexyl)acetamide] | 1.39 µM | 540 nM | 4.37 µM
11 | O=C(N[C@H]1CC[C@H](S(=O)(=O)c2cccc(C(F)(F)F)c2)CC1)c1cncc(C(F)(F)F)c1 [Compound 190, 5-(trifluoromethyl)-N-((1R,4R)-4-(3-(trifluoromethyl)phenylsulfonyl)cyclohexyl)nicotinamide] | 2.53 µM | 600 nM | 5.56 µM
12 | O=C(N[C@H]1CC[C@@H](S(=O)(=O)c2cccc(C(F)(F)F)c2)CC1)c1ccnn1CC(F)(F)F [Compound 193, l-(2,2,2-trifluoroethyl)-N-((1S,4S)-4-(3-(trifluoromethyl)phenylsulfonyl)cyclohexyl)-1H-pyrazole-5-carboxamide] | 1.59 µM | 540 nM | 6.97 µM
13 | O=C(N[C@H]1CC[C@@H](S(=O)(=O)c2cccc(C(F)(F)F)c2)CC1)c1ccc(OCC(F)(F)F)nc1 [Compound 197, 6-(2,2,2-trifluoroethoxy)-N-((1S,4S)-4-(3-(trifluoromethyl)phenylsulfonyl)cyclohexyl)nicotinamide] | 5.66 µM | 470 nM | > 10 µM
14 | Cc1cc(C(=O)N[C@H]2CC[C@@H](S(=O)(=O)c3cccc(C(F)(F)F)c3)CC2)c(C(F)(F)F)o1 [Compound 198, 5-methyl-2-(trifluoromethyl)-N-((1S,4S)-4-(3-(trifluoromethyl)phenylsulfonyl)cyclohexyl)furan-3-carboxamide] | > 10 µM | 270 nM | > 10 µM
15 | O=C(N[C@H]1CC[C@@H](S(=O)(=O)c2cccc(C(F)(F)F)c2)CC1)c1cncc(C(F)(F)F)c1 [Compound 203, 5-(trifluoromethyl)-N-((1S,4S)-4-(3-(trifluoromethyl)phenylsulfonyl)cyclohexyl)nicotinamide] | 1.89 µM | 590 nM | 2.57 µM
16 | CC(C)(C)S(=O)(=O)c1ccsc1C(=O)N[C@H]1CC[C@@H](S(=O)(=O)c2cccc(C(F)(F)F)c2)CC1 [Compound 204, 3-(tert-butylsulfonyl)-N-((1S,4S)-4-(3-(trifluoromethyl)phenylsulfonyl)cyclohexyl)thiophene-2-carboxamide] | 6.46 µM | 210 nM | 3.55 µM
17 | Cn1nc(C(F)(F)F)cc1C(=O)NCC1(C)CCC(S(=O)(=O)c2cccc(C(F)(F)F)c2)CC1 (stereo not drawn) [Compound 206, 1-methyl-N-((1-methyl-4-(3-(trifluoromethyl)phenylsulfonyl)cyclohexyl)methyl)-3-(trifluoromethyl)-1H-pyrazole-5-carboxamide] | 2.55 µM | 420 nM | 3.52 µM
18 | CC1(CNC(=O)c2ccc(C(F)(F)F)cc2S(C)(=O)=O)CCC(S(=O)(=O)c2cccc(C(F)(F)F)c2)CC1 (stereo not drawn) [Compound 207] | 1.13 µM | 260 nM | 1.34 µM
19 | CC1(CNC(=O)c2ccc(C(F)(F)F)cn2)CCC(S(=O)(=O)c2cccc(C(F)(F)F)c2)CC1 (stereo not drawn) [Compound 208, N-((1-methyl-4-(3-(trifluoromethyl)phenylsulfonyl)cyclohexyl)methyl)-5-(trifluoromethyl)picolinamide] | 1.11 µM | 590 nM | 1.14 µM
20 | COc1cc(C(=O)NCC2(C)CCC(S(=O)(=O)c3cccc(C(F)(F)F)c3)CC2)cc(Cl)n1 (stereo not drawn) [Compound 210, 2-chloro-6-methoxy-N-((1-methyl-4-(3-(trifluoromethyl)phenylsulfonyl)cyclohexyl)methyl)isonicotinamide] | 4.14 µM | 380 nM | 4.95 µM
21 | O=C(N[C@H]1CC[C@@](F)(S(=O)(=O)c2cccc(C(F)(F)F)c2)CC1)c1ccc(OCC(F)(F)F)nc1 [Compound 249, N-((1S,4S)-4-fluoro-4-(3-(trifluoromethyl)phenylsulfonyl)cyclohexyl)-6-(2,2,2-trifluoroethoxy)nicotinamide] | 0.36 µM | 260 nM | 2.65 µM
22 | O=C(N[C@H]1CC[C@](F)(S(=O)(=O)c2cccc(OC(F)(F)F)c2)CC1)c1ccc(F)c(Cl)c1 [Compound 250, 3-chloro-4-fluoro-N-((1R,4R)-4-fluoro-4-(3-(trifluoromethoxy)phenylsulfonyl)cyclohexyl)benzamide] | 0.99 µM | 800 nM | 4.28 µM
23 | O=C(N[C@H]1CC[C@@](F)(S(=O)(=O)c2cccc(OC(F)(F)F)c2)CC1)c1cc(F)cc(Cl)c1 [Compound 251] | 0.57 µM | 150 nM | 3.59 µM
24 | O=C(N[C@H]1CC[C@@](F)(S(=O)(=O)c2cccc(OC(F)(F)F)c2)CC1)c1cncc(C(F)(F)F)c1 [Compound 252, N-((1S,4S)-4-fluoro-4-(3-(trifluoromethoxy)phenylsulfonyl)cyclohexyl)-5-(trifluoromethyl)nicotinamide] | 0.67 µM | 350 nM | 0.45 µM
25 | O=C(N[C@H]1CC[C@@](F)(S(=O)(=O)c2cccc(OC(F)(F)F)c2)CC1)c1ccnn1CC(F)(F)F [Compound 253] | 0.46 µM | 320 nM | 1.19 µM
26 | CS(=O)(=O)c1cc(C(F)(F)F)ccc1C(=O)N[C@H]1CC[C@@](F)(S(=O)(=O)c2cccc(OC(F)(F)F)c2)CC1 [Compound 254] | 0.26 µM | 370 nM | 0.74 µM
27 | Cn1nc(C(F)(F)F)cc1C(=O)N[C@H]1CC[C@@](F)(S(=O)(=O)c2cccc(OC(F)(F)F)c2)CC1 [Compound 255, N-((1S,4S)-4-fluoro-4-(3-(trifluoromethoxy)phenylsulfonyl)cyclohexyl)-1-methyl-3-(trifluoromethyl)-1H-pyrazole-5-carboxamide] | 3.32 µM | 210 nM | 2.01 µM
28 | O=C(N[C@H]1CC[C@@](F)(S(=O)(=O)c2cccc(OC(F)(F)F)c2)CC1)c1ccc(F)c(Cl)c1 [Compound 256, 3-chloro-4-fluoro-N-((1S,4S)-4-fluoro-4-(3-(trifluoromethoxy)phenylsulfonyl)cyclohexyl)benzamide] | 3.32 µM | 150 nM | 2.01 µM
